Reference: paper PMC11971462, “Generation and validation of a novel multitarget small molecule in glioblastoma” (Cell Death & Disease, 2025)

Test system: GNS166 cells
Assay: Label-free proteomics differential expression
Type: cell-based, human
Protocol: Proteomic studies were performed by the Proteomics Facility of the CIC bioGUNE by label-free relative quantification on nLC MS/MS. […] In both approaches, the top 20 enriched terms were plotted and the pathways were clustered using divisive hierarchical clustering based on pairwise Jaccard distances.

[1] = label-free proteomics, sheet DDI Prot

## C#CCN(Cc1cc2cc(OCCCN3CCCCC3)ccc2n1S(=O)(=O)c1ccccc1)C(=O)CCCCCCC(=O)NO [DDI]
[1]
  Direction of BIEA_HUMAN (P53004, GN=BLVRA) protein: Up
  Direction of CASP3_HUMAN (P42574, GN=CASP3) protein: Up
  Direction of COEA1_HUMAN (Q05707, GN=COL14A1) protein: Up
  Direction of GSH1_HUMAN (P48506, GN=GCLC) protein: Up
  Direction of LKHA4_HUMAN (P09960, GN=LTA4H) protein: Up
  Direction of NDUAC_HUMAN (Q9UI09, GN=NDUFA12) protein: Up
  Direction of PGPS1_HUMAN (Q32NB8, GN=PGS1) protein: Up
  Direction of PTSS1_HUMAN (P48651, GN=PTDSS1) protein: Up
  Direction of RETST_HUMAN (Q6NUM9, GN=RETSAT) protein: Up
  Direction of WDR47_HUMAN (O94967, GN=WDR47) protein: Up
  Direction of YIPF5_HUMAN (Q969M3, GN=YIPF5) protein: Up
label-free proteomics, sheet DDI Prot, p value 0.0469656
  LogFC of PGPS1_HUMAN (Q32NB8, GN=PGS1) protein: 1.405
label-free proteomics, sheet DDI Prot, p value 0.0475587
  LogFC of BIEA_HUMAN (P53004, GN=BLVRA) protein: 0.7997
label-free proteomics, sheet DDI Prot, p value 0.0480187
  LogFC of GSH1_HUMAN (P48506, GN=GCLC) protein: 1.55
label-free proteomics, sheet DDI Prot, p value 0.0482259
  LogFC of WDR47_HUMAN (O94967, GN=WDR47) protein: 1.18
label-free proteomics, sheet DDI Prot, p value 0.0482636
  LogFC of LKHA4_HUMAN (P09960, GN=LTA4H) protein: 0.5863
label-free proteomics, sheet DDI Prot, p value 0.0487326
  LogFC of CASP3_HUMAN (P42574, GN=CASP3) protein: 0.743
label-free proteomics, sheet DDI Prot, p value 0.049075
  LogFC of YIPF5_HUMAN (Q969M3, GN=YIPF5) protein: 0.5348
label-free proteomics, sheet DDI Prot, p value 0.0492119
  LogFC of NDUAC_HUMAN (Q9UI09, GN=NDUFA12) protein: 0.6479
label-free proteomics, sheet DDI Prot, p value 0.0493344
  LogFC of COEA1_HUMAN (Q05707, GN=COL14A1) protein: 0.8788
label-free proteomics, sheet DDI Prot, p value 0.049447
  LogFC of RETST_HUMAN (Q6NUM9, GN=RETSAT) protein: 0.7532
label-free proteomics, sheet DDI Prot, p value 0.0494892
  LogFC of PTSS1_HUMAN (P48651, GN=PTDSS1) protein: 0.7741
Protein A5YKK6
  Direction CNOT1_HUMAN: Down
  LogFC CNOT1_HUMAN: -0.5343
Protein A6NI47
  Direction POTEM_HUMAN: Down
  LogFC POTEM_HUMAN: -1.6004
Protein O00154 GN=ACOT7
  LogFC BACH_HUMAN: 0.4908
Protein O00186 GN=STXBP3
  LogFC STXB3_HUMAN: -0.9203
Protein O00443
  Direction P3C2A_HUMAN: Down
  LogFC P3C2A_HUMAN: -0.6873
Protein O00560 GN=SDCBP
  LogFC SDCB1_HUMAN: 2.446
Protein O00571
  Direction DDX3X_HUMAN: Down
  LogFC DDX3X_HUMAN: -0.4203
Protein O00767 GN=SCD
  LogFC ACOD_HUMAN: 1.2881
Protein O14497
  Direction ARI1A_HUMAN: Down
  LogFC ARI1A_HUMAN: -1.314
Protein O14656 GN=TOR1A
  LogFC TOR1A_HUMAN: -0.6936
Protein O14744
  Direction ANM5_HUMAN: Down
  LogFC ANM5_HUMAN: -0.2326
Protein O14757
  Direction CHK1_HUMAN: Down
  LogFC CHK1_HUMAN: -0.9245
Protein O14908 GN=GIPC1
  LogFC GIPC1_HUMAN: 1.5016
Protein O14965
  Direction AURKA_HUMAN: Down
  LogFC AURKA_HUMAN: -3.358
Protein O15121
  Direction DEGS1_HUMAN: Down
  LogFC DEGS1_HUMAN: -0.1717
Protein O15173 GN=PGRMC2
  LogFC PGRC2_HUMAN: 0.7586
Protein O15254 GN=ACOX3
  LogFC ACOX3_HUMAN: 1.235
Protein O15294
  Direction OGT1_HUMAN: Down
  LogFC OGT1_HUMAN: -0.4734
Protein O15321
  Direction TM9S1_HUMAN: Down
  LogFC TM9S1_HUMAN: -2.186
Protein O15344 GN=MID1
  LogFC TRI18_HUMAN: 0.3983
Protein O15357
  Direction SHIP2_HUMAN: Down
  LogFC SHIP2_HUMAN: -1.6838
Protein O15360
  Direction FANCA_HUMAN: Down
  LogFC FANCA_HUMAN: -1.214
Protein O15427 GN=SLC16A3
  LogFC MOT4_HUMAN: 1.9
Protein O15439
  Direction MRP4_HUMAN: Down
  LogFC MRP4_HUMAN: -0.8149
Protein O15533 GN=TAPBP
  LogFC TPSN_HUMAN: -0.5526
Protein O43242 GN=PSMD3
  LogFC PSMD3_HUMAN: -0.4067
Protein O43252 GN=PAPSS1
  LogFC PAPS1_HUMAN: 0.7138
Protein O43314
  Direction VIP2_HUMAN: Down
  LogFC VIP2_HUMAN: -0.766
Protein O43615 GN=TIMM44
  LogFC TIM44_HUMAN: -0.5983
Protein O43709
  Direction BUD23_HUMAN: Down
  LogFC BUD23_HUMAN: -2.307
Protein O43823
  Direction AKAP8_HUMAN: Down
  LogFC AKAP8_HUMAN: -2.082
Protein O43824
  Direction GTPB6_HUMAN: Down
  LogFC GTPB6_HUMAN: -1.261
Protein O60333
  Direction KIF1B_HUMAN: Down
  LogFC KIF1B_HUMAN: -2
Protein O60462 GN=NRP2
  LogFC NRP2_HUMAN: -0.6899
Protein O60502 GN=OGA
  LogFC OGA_HUMAN: 0.8005
Protein O60518 GN=RANBP6
  LogFC RNBP6_HUMAN: 1.52
Protein O75131 GN=CPNE3
  LogFC CPNE3_HUMAN: 0.4901
Protein O75146 GN=HIP1R
  LogFC HIP1R_HUMAN: 2.1312
Protein O75153
  Direction CLU_HUMAN: Down
  LogFC CLU_HUMAN: -0.6987
Protein O75352
  Direction MPU1_HUMAN: Down
  LogFC MPU1_HUMAN: -0.8716
Protein O75354
  Direction ENTP6_HUMAN: Down
  LogFC ENTP6_HUMAN: -1.463
Protein O75431 GN=MTX2
  LogFC MTX2_HUMAN: -0.4239
Protein O75691
  Direction UTP20_HUMAN: Down
  LogFC UTP20_HUMAN: -1.068
Protein O75937
  Direction DNJC8_HUMAN: Down
  LogFC DNJC8_HUMAN: -0.4544
Protein O75954
  Direction TSN9_HUMAN: Down
  LogFC TSN9_HUMAN: -3.176
Protein O76094 GN=SRP72
  LogFC SRP72_HUMAN: -0.4411
Protein O94829 GN=IPO13
  LogFC IPO13_HUMAN: 1.054
Protein O94854 GN=KIAA0754
  LogFC K0754_HUMAN: -2.89
Protein O94925 GN=GLS
  LogFC GLSK_HUMAN: 1.0422
Protein O94964
  Direction SOGA1_HUMAN: Down
  LogFC SOGA1_HUMAN: -1.709
Protein O95071
  Direction UBR5_HUMAN: Down
  LogFC UBR5_HUMAN: -1.078
Protein O95166 GN=GABARAP
  LogFC GBRAP_HUMAN: 0.6601
Protein O95239
  Direction KIF4A_HUMAN: Down
  LogFC KIF4A_HUMAN: -2.337
Protein O95249
  Direction GOSR1_HUMAN: Down
  LogFC GOSR1_HUMAN: -1.68
Protein O95251
  Direction KAT7_HUMAN: Down
  LogFC KAT7_HUMAN: -3.074
Protein O95347
  Direction SMC2_HUMAN: Down
  LogFC SMC2_HUMAN: -0.9053
Protein O95363 GN=FARS2
  LogFC SYFM_HUMAN: -0.6412
Protein O95479 GN=H6PD
  LogFC G6PE_HUMAN: -1.176
Protein O95573 GN=ACSL3
  LogFC ACSL3_HUMAN: 1.019
Protein O95671 GN=ASMTL
  LogFC ASML_HUMAN: 3.03
Protein O95793
  Direction STAU1_HUMAN: Down
